# Source: patent US6677368B2, “4-aryl substituted indolinones” (Sugen, Inc., priority 2000, dated 2004)
# What was measured:
# Assay type in all cases: biochemical
# EGFR = EGFR (Homo sapiens, UniProt P00533); assay: EGFR kinase inhibition
# PDGFR = target: T1, PDGFR (UniProt P09619); assay: PDGFR bioassay (ELISA, in vitro kinase activity); conditions: PDGFR-β expressing NIH 3T3 cell lysate, 20 μM ATP
# T1 construct: PDGFR-β expressing NIH 3T3 cell lysate (SUGEN, Inc.)
# Description: This assay is used to the in vitro kinase activity of PDGFR in an ELISA assay.
# 1. Corning 96-well ELISA plates
# 2. 28D4C10 monoclonal anti-PDGFR antibody (SUGEN, Inc.).
# 5. Blocking Buffer (same as for EGFR bioassay).
# 6. PDGFR-β expressing NIH 3T3 cell lysate (SUGEN, Inc.).
# 11. Kinase buffer phosphorylation mix: for 10 ml, mix 250 μl 1M TRIS, 200 μl 5M NaCl, 100 μl 1M MnCl2 and 501l 100 mM Triton X-100 in enough dH2O to make 10 ml.
# 12. NUNC 96-well V bottom polypropylene plates.
# 14. Rabbit polyclonal anti-phosphotyrosine serum (SUGEN, Inc.).
# 15. Goat anti-rabbit IgG peroxidase conjugate (Biosource Cat. No. ALI0404).
# 17. Hydrogen peroxide, 30% solution.
# 1. Coat Corning 96 well ELISA plates with […] 28D4C 10 in 100 μl PBS per well, hold overnight at 4° C.
# 2. Remove unbound 28D4C10 from wells by inverting plate to remove liquid. Wash 1× with dH2O. Pat the plate on a paper towel to remove excess liquid.
# 3. Add 150 μl of Blocking Buffer to each well. Incubate for 30 min. at room temperature with shaking.
# 4. Wash plate 3× with deionized water, then once with TBST. Pat plate on a paper towel to remove excess liquid and bubbles.
# 5. Dilute lysate in HNTG (10 μg lysate/100 μl HNTG).
# 6. Add 100 μl of diluted lysate to each well. Shake at room temperature for 60 min.
# 7. Wash plates as described in Step 4.
# 8. Add 80 μl working kinase buffer mix to ELISA plate containing captured PDGFR.
# 9. Dilute test compound 1:10 in TBS in 96-well polypropylene plates.
# 10. Add 10 μl diluted test compound to -ELISA plate. To control wells, add 10 μl TBS+10% DMSO. Incubate with shaking for 30 minutes at room temperature.
# 11. Add 10 μl ATP directly to all wells except negative control well (final well volume should be approximately 100 μl with 20 μM ATP in each well.) Incubate 30 minutes with shaking.
# 12. Stop reaction by adding 10 μl of EDTA solution to each well.
# 13. Wash 4× with deionized water, twice with TBST.
# 14. Add 100 μl anti-phosphotyrosine (1:3000 dilution in TBST) per well.
# Incubate with shaking for 30-45 min. at room temperature.
# 16. Add 100 μl Biosource Goat anti-rabbit IgG peroxidase conjugate (1:2000 dilution in TBST) to each well. Incubate with shaking for 30 min. at room temperature.
# 18. Add 100 μl of ABTS/H2O2 solution to each well.
# 19. Incubate 10 to 30 minutes with shaking. Remove any bubbles.
# 20. If necessary stop reaction with the addition of 100 μl 0.2 M HCl per well.
# 21. Read assay on Dynatech MR7000 ELISA reader with test filter at 410 nM and reference filter at 630 nM.
# SRC = target: T2, SRC (Homo sapiens, UniProt P12931); assay: Src transphosphorylation assay; conditions: recombinant human Src, poly(Glu-Tyr) substrate
# T2 construct: purchased UBI 14-117
# Description: Src Transphosphorylation Assay
# This assay is used to screen for inhibitors of the tyrosine kinase Src.
# 1. Coating buffer: PBS containing sodium azide (0.2 mg/ml).
# 3. Wash buffer: PBS containing 0.05% v/v Tween 20 (PBS-TWEEN)
# 5. ATP (40 [M)+MgCl2 (80 mM) in distilled water.
# 6. MgCl2 (80 mM) in distilled water (for no ATP blanks).
# 7. Test compounds, 10 mM in DMSO.
# 8. Assay Buffer: 100 mM HEPES, pH 7.4, containing 2 mM DTT, 0.2 mM sodium orthovanadate and 0.2 mgs/ml BSA.
# 9. Partially purified recombinant human Src (UBI (14-117)
# 10. Anti-phosphotyrosine (SUGEN rabbit polyclonal anti-PY).
# 11. HRP-linked goat anti-rabbit Ig (Biosource International #6430)
# 12. HRP substrate ABTS or Pierce Peroxidase substrate.
# 13. Corning ELISA plates.
# 1. Coat plates with 100 μl of 20 μg/ml poly(Glu-Tyr) (Sigma Cat. No.P0275) containing 0.01% sodium azide. Hold overnight at 4° C.
# 2. Block with 1% BSA at 100 μl/well for one hour at room temperature.
# 3. Plate test compounds (10 mM in DMSO) at 2 ul/well on a Costar plate ready for dilution with dH2O and plating to reaction plates.
# 4. Dilute Src kinase 1:10,000 in Reaction Buffer, for 5 plates prepare 25 ml as follows: 2.5 mls 1M HEPES pH7.4 (stored sterile at 4° C.), 21.85 ml distilled water, 0.1 ml 5% BSA, 0.5 ml 10 mM sodium orthovanadate (stored sterile at 4° C.), 50 μl 1.0M DTT (stored frozen at […]), and 2.5 μl Src Kinase (stored frozen at −80° C.).
# 5. Add 48 μl of distilled water to the 2 ∥l of each compound in the dilution plate then add 25 μl/well of this to the reaction plate.
# 6. Add 50 μl of […] to each reaction buffer well and then 25 μl ATP-MgCl2/well (MgCl2 only to no ATP blanks). Incubate at room temperature for 15 minutes on plate shaker. Stop reaction by adding 25 μl of 0.5M EDTA to each well.
# 7. Wash 4× with PBS-TWEEN.
# 8. […] Incubate with continuous shaking at room temperature for one hour.
# 9. Wash plates 4× with PBS-TWEEN.
# 10. Add 100 μl HPP-linked Ig (1:5,000) in PBS-TWEEN containing 0.5% BSA, 0.025% Non-fat milk powder, 100 μM sodium orthovanadate. Incubate with shaking at room temperature for one hour.
# 11. Wash plates 4× with PBS-TWEEN and then once with PBS.
# 12. Develop plate using ABTS or other peroxidase substrate.
# P38 = P38 (Homo sapiens, UniProt Q16539); assay: P38 kinase inhibition
# Chain of P38 (Q16539 whole entry): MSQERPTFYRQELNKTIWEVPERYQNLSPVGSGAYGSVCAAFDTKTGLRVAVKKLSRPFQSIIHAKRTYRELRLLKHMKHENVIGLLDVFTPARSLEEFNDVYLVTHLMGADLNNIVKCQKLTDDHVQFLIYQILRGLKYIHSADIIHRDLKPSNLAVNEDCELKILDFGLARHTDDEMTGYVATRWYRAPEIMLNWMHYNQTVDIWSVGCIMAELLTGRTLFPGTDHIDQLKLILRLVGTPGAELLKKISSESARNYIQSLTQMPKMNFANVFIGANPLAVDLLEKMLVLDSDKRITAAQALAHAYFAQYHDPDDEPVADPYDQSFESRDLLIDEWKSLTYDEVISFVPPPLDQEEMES
# T2 sequence (P12931 whole entry): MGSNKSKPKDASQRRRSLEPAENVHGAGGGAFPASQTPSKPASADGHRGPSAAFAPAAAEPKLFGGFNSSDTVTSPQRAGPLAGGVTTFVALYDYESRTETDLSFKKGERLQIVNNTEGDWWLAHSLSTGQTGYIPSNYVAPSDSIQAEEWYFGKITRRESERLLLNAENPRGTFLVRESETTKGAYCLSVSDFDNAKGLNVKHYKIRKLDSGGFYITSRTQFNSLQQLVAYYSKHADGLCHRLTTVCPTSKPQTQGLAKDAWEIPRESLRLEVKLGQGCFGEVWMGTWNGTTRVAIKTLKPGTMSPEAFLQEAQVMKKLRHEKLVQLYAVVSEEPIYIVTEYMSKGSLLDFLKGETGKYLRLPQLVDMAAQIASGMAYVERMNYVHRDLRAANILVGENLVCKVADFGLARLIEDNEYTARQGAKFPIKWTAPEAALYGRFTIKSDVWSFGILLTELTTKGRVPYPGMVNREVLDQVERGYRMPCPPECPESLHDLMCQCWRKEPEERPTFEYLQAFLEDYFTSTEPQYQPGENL
# Chain of EGFR (P00533 25-1210, species assumed): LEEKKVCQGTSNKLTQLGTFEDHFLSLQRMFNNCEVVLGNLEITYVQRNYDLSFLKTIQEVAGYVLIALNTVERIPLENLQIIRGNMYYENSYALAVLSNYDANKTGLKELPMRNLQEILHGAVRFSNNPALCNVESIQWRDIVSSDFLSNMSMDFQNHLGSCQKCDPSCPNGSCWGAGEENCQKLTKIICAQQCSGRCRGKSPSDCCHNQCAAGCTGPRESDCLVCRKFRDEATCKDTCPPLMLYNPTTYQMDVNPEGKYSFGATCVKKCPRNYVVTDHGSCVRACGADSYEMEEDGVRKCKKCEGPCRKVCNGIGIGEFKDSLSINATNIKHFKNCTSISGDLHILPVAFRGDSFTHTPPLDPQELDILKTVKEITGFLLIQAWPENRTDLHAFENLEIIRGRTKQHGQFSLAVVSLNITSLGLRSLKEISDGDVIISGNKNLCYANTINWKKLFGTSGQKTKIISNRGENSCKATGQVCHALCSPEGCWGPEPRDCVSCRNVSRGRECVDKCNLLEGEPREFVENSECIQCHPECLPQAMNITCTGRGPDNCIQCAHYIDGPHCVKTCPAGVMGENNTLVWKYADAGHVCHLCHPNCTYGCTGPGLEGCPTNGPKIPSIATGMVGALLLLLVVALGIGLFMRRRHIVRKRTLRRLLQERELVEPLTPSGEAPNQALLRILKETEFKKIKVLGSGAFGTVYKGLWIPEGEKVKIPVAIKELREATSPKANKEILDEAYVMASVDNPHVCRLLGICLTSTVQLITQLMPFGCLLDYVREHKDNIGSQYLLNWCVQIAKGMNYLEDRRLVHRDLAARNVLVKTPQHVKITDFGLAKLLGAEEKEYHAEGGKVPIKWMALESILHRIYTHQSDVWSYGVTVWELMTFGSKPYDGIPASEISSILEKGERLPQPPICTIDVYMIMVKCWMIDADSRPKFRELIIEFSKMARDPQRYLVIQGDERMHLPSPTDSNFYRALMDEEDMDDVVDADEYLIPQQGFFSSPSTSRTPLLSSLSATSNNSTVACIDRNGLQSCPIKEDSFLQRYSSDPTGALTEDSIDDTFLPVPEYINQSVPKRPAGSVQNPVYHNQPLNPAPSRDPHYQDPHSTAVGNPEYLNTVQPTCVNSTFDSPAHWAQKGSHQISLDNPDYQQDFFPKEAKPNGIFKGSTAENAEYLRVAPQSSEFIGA
IC50 (EGFR) [µM],IC50 (PDGFR) [µM],IC50 (SRC) [µM],IC50 (P38) [µM],SMILES
16.4,2.19,1.25,> 10,"COc1ccc(-c2cccc3c2/C(=C/c2[nH]c(C)c(C(=O)NCCN4CCCC4)c2C)C(=O)N3)cc1 [Example 38, 5-[4-(4-Methoxy-phenyl)-2-oxo-1,2-dihydro-indol-3-ylidenemethyl]-2,4-dimethyl-1H-pyrrole-3-carboxylic Acid (2-Pyrrolidin-1-yl-ethyl)-amide]"
7.01,2.37,2.01,7.9,"Cc1[nH]c(/C=C2\C(=O)Nc3cccc(-c4ccc(Br)cc4)c32)c(C)c1C(=O)NCCN(C(C)C)C(C)C [Example 60, 5-[4-(4-Bromo-phenyl)-2-oxo-1,2-dihydro-indol-3-ylidenemethyl]-2,4-dimethyl-1H-pyrrole-3-carboxylic Acid (2-Diisopropylamino-ethyl)-amide]"

# Continued, compound first:
SMILES,IC50 (EGFR) [µM],IC50 (PDGFR) [µM],IC50 (SRC) [µM],IC50 (P38) [µM]
"CCN(CC)CCNC(=O)c1c(C)[nH]c(/C=C2\C(=O)Nc3cccc(-c4cccc(F)c4)c32)c1C [Example 13, 5-[4-(3-Fluoro-phenyl)-2-oxo-1,2-dihydro-indol-3-ylidenemethyl]-2,4-dimethyl-1H-pyrrole-3-carboxylic Acid (2-Diethylamino-ethyl)-amide]",13.1,2.32,1.05,> 10
"CCOC(=O)c1c(C)[nH]c(/C=C2\C(=O)Nc3cccc(-c4cccc(F)c4)c32)c1CCCN1CCN(C)CC1 [Example 18, 5-[4-(3-Fluoro-phenyl)-2-oxo-1,2-dihydro-indol-3-ylidenemethyl]-2-methyl-4-[3-(4-methyl-piperazin-1-yl)-propyl]-1H-pyrrole-3-carboxylic Acid Ethyl Ester]",9.33,10.4,7.81,9.5
"Cc1[nH]c(/C=C2\C(=O)Nc3cccc(-c4ccc(Cl)cc4)c32)c(C)c1C(=O)NCCN1CCCC1 [Example 22, 5-[4-(4-Chloro-phenyl)-2-oxo-1,2-dihydro-indol-3-ylidenemethyl]-2,4-dimethyl-1H-pyrrole-3-carboxylic Acid (2-Pyrrolidin-1-yl-ethyl)-amide]",15.9,1.64,1.58,13.1
"CCN(CC)CCNC(=O)c1c(C)[nH]c(/C=C2\C(=O)Nc3cccc(-c4cccc(Cl)c4)c32)c1C [Example 29, 5-[4-(3-Chloro-phenyl)-2-oxo-1,2-dihydro-indol-3-ylidenemethyl]-2,4-dimethyl-1H-pyrrole-3-carboxylic Acid (2-Diethylamino-ethyl)-amide]",12.9,0.69,1.25,> 10
